Assays:
[1] = Stability/degradation in aqueous citric acid or citrate buffer under heat, followed by HPLC; assay type: physicochemical
Experimental: […] reactions were set up under identical conditions as in Example 3 except for temperatures: 43° C., 65° C., 75° C., 85° C., and 90° C. reactions were set up and followed by HPLC-MS or UV (210 nm) detection.
Two studies were performed on the pH dependency of the synthesis of iso-rebaudioside A (Cmpd X) from rebaudioside A (Reb A). Rebaudioside A was dissolved at the same concentration in a series of aqueous citric acid solutions, each having a different pH. The solutions were heated to 43° C. for 11 weeks. One study was performed with solutions at pH 2.0, 4.0, and 7.0. The other study was performed with solutions at pH 2.5, 3.0, and 3.5. Results of the two studies are shown in FIGS. 17 and 18, respectively, wherein Reb A stands for rebaudioside A and Cmpd X stands for iso-rebaudioside A. In FIG. 17, the concentration of iso-rebaudioside A at pH 2 peaks at week 9 and decreases afterwards.

[2] = Sweetness tasting by a panel of five people, compared with sucrose solution
Experimental: Iso-rebaudioside A from the x-ray crystallography sample of Example 3 was dissolved in water at a concentration of 1000 ppm, and was found by a panel of five people to have a sweetness intensity similar to that of a 7% sucrose solution; therefore its sweetness potency was estimated to be 70 times that of sucrose.

[3] = cited from earlier work; for stability under acidic conditions at 60° C.: pH 2.4 to 2.6, 60° C.; for stability under acidic conditions at 100° C.: pH 2.4 to 2.6, 100° C., yields hydrolysis byproducts

Row | time of peak concentration before decrease (degradation) ([1]; pH 2) [week] | degradation in acidic solution ([1]; aqueous citric acid pH 2, 43° C., after week 9) | hydrolysis at elevated temperatures ([1]; citrate buffer pH 2, 43° C. to 90° C., HPLC-MS) | Compound | degradation in acidic solution ([1]; pH 2) | sweetness intensity, equivalent sucrose solution ([2]; 1000 ppm in water, panel of five people) [% sucrose solution] | sweetness potency relative to sucrose ([2]; estimated from 1000 ppm vs 7% sucrose) | stability under acidic conditions at 60° C. [3] | stability under acidic conditions at 100° C. [3]
1 | 9 |  |  | CC1=CC23CCC4C(C)(C(=O)OC5OC(CO)C(O)C(O)C5O)CCCC4(C)C2CCC1(OC1OC(CO)C(O)C(OC2OC(CO)C(O)C(O)C2O)C1OC1OC(CO)C(O)C(O)C1O)C3 (stereo not shown) [iso-rebaudioside A] | degraded/hydrolyzed into other steviol glycoside isomers | ~7 | 70 times that of sucrose |  | 
2 |  | continues to decrease after week 9 | extensive hydrolysis occurred | C=C1C[C@@]23CC[C@H]4[C@@](C)(CCC[C@@]4(C)C(=O)O[C@@H]4O[C@H](CO)[C@@H](O)[C@H](O)[C@H]4O)[C@@H]2CC[C@]1(O[C@@H]1O[C@H](CO)[C@@H](O)[C@H](O[C@@H]2O[C@H](CO)[C@@H](O)[C@H](O)[C@H]2O)[C@H]1O[C@@H]1O[C@H](CO)[C@@H](O)[C@H](O)[C@H]1O)C3 [rebaudioside A] |  |  |  | quite stable | undergo drastic changes
3 |  |  |  | C=C1C[C@@]23CC[C@H]4[C@@](C)(CCC[C@@]4(C)C(=O)O[C@@H]4O[C@H](CO)[C@@H](O)[C@H](O)[C@H]4O)[C@@H]2CC[C@]1(O[C@@H]1O[C@H](CO)[C@@H](O)[C@H](O)[C@H]1O[C@@H]1O[C@H](CO)[C@@H](O)[C@H](O)[C@H]1O)C3 [stevioside] |  |  |  | quite stable | undergo drastic changes

From patent publication US7964232B2, “Steviol glycoside isomers” (PepsiCo, Inc., priority 2007, dated 2011)
